Reference: ChEMBL document CHEMBL1152378 (Bioorg Med Chem Lett, 2009)

How the values were obtained:
Carbonic anhydrase 2 = Carbonic anhydrase 2 (Homo sapiens, UniProt P00918)
Carbonic anhydrase 15 = target: T1, Carbonic anhydrase 15 (Mus musculus, UniProt Q99N23)
T1 sequence (Q99N23 whole entry): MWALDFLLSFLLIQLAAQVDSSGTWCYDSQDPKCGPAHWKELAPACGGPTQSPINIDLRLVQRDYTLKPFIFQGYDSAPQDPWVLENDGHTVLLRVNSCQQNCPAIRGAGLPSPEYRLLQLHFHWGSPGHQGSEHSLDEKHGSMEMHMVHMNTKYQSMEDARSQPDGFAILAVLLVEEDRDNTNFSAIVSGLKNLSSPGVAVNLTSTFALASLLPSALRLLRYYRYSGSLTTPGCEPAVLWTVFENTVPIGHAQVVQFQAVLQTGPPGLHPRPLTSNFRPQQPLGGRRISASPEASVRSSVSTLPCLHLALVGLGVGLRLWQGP

Carbonic anhydrase 13 = Carbonic anhydrase 13 (Mus musculus, UniProt Q9D6N1)
Sequence of Carbonic anhydrase 13 (Q9D6N1 whole entry): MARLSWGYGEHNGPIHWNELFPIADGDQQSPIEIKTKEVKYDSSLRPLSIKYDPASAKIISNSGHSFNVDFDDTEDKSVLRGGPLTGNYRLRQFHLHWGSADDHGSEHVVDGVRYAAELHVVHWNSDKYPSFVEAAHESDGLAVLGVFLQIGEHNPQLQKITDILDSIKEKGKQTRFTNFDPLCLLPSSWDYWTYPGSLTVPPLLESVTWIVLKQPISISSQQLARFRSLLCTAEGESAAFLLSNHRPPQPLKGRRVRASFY

Carbonic anhydrase 12 = Carbonic anhydrase 12 (Homo sapiens, UniProt O43570)
Sequence of Carbonic anhydrase 12 (O43570 whole entry): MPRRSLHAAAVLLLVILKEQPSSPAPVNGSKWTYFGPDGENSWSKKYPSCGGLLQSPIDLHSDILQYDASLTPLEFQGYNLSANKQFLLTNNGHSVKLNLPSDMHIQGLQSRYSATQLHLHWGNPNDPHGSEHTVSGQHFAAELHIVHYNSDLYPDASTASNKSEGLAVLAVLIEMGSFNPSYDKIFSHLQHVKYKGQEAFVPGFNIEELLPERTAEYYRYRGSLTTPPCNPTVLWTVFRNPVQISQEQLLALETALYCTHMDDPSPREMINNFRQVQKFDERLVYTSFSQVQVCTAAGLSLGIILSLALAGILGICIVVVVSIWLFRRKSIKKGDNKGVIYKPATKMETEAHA

Carbonic anhydrase 9 = Carbonic anhydrase 9 (Homo sapiens, UniProt Q16790)
Carbonic anhydrase 7 = Carbonic anhydrase 7 (Homo sapiens, UniProt P43166)
Sequence of Carbonic anhydrase 7 (P43166 whole entry): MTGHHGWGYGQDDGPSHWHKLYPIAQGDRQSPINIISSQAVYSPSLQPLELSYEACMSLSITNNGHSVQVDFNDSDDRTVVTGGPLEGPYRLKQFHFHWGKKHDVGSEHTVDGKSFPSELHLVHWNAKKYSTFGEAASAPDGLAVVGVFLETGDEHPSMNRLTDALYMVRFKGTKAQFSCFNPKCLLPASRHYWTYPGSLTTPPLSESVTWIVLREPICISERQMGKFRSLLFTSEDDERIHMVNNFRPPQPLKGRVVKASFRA

Carbonic anhydrase 3 = Carbonic anhydrase 3 (Homo sapiens, UniProt P07451)
Sequence of Carbonic anhydrase 3 (P07451 whole entry): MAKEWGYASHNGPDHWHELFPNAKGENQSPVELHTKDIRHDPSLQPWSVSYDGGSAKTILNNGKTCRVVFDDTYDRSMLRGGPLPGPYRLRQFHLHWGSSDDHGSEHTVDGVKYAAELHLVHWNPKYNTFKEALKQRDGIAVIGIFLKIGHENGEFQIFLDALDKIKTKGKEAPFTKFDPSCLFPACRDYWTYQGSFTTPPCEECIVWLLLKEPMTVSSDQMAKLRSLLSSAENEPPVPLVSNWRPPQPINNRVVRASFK

Carbonic anhydrase 6 = Carbonic anhydrase 6 (Homo sapiens, UniProt P23280)
Sequence of Carbonic anhydrase 6 (P23280 whole entry): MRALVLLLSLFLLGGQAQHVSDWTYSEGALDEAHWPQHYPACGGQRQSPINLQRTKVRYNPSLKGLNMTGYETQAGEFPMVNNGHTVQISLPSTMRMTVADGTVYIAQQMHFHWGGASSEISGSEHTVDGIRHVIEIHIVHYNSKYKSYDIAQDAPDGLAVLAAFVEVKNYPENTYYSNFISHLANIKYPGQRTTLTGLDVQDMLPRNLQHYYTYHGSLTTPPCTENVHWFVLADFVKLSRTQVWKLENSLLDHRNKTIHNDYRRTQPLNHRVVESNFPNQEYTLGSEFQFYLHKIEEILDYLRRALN

[1] = target: Carbonic anhydrase 5B, mitochondrial (Homo sapiens, UniProt Q9Y2D0)
Sequence of Carbonic anhydrase 5B, mitochondrial (Q9Y2D0 whole entry): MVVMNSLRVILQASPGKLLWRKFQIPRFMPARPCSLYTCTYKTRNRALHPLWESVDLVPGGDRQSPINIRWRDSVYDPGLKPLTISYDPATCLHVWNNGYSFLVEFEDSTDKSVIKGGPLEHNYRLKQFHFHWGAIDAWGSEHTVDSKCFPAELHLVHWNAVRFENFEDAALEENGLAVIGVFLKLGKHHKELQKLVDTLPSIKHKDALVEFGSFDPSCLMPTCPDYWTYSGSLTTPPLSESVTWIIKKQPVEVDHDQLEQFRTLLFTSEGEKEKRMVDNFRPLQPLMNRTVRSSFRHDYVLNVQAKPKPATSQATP

Carbonic anhydrase 1 = Carbonic anhydrase 1 (Homo sapiens, UniProt P00915)
Sequence of Carbonic anhydrase 1 (P00915 whole entry): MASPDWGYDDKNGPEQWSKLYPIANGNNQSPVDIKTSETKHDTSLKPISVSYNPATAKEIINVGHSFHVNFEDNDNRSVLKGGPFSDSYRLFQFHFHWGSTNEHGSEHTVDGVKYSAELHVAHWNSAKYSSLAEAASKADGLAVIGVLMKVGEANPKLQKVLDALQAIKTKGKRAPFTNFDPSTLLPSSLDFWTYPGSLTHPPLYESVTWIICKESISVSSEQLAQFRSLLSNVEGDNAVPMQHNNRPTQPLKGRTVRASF
Description: Inhibition of human carbonic anhydrase 1 by stopped flow CO2 hydration assay

[2] = target: Carbonic anhydrase 5A, mitochondrial (Homo sapiens, UniProt P35218)
Sequence of Carbonic anhydrase 5A, mitochondrial (P35218 whole entry): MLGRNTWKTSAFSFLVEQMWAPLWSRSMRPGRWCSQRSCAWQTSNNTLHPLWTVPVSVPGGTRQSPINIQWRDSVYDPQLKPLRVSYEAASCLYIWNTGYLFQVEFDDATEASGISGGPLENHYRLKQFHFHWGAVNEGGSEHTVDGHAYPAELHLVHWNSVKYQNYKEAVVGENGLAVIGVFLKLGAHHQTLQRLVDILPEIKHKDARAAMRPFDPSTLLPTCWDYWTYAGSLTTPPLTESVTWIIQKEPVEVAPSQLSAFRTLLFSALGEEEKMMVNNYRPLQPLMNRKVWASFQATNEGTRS

Carbonic anhydrase 14 = Carbonic anhydrase 14 (Homo sapiens, UniProt Q9ULX7)
Sequence of Carbonic anhydrase 14 (Q9ULX7 whole entry): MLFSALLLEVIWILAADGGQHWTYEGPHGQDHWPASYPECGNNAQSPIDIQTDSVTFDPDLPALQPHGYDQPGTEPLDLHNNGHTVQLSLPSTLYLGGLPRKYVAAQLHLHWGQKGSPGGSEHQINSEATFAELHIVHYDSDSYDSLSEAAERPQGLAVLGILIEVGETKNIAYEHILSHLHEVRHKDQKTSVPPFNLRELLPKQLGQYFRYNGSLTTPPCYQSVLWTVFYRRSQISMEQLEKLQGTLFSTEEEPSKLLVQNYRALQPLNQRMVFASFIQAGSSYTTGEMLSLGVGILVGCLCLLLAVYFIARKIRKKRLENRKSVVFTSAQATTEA

Carbonic anhydrase 4 = Carbonic anhydrase 4 (Homo sapiens, UniProt P22748)
Sequence of Carbonic anhydrase 4 (P22748 whole entry): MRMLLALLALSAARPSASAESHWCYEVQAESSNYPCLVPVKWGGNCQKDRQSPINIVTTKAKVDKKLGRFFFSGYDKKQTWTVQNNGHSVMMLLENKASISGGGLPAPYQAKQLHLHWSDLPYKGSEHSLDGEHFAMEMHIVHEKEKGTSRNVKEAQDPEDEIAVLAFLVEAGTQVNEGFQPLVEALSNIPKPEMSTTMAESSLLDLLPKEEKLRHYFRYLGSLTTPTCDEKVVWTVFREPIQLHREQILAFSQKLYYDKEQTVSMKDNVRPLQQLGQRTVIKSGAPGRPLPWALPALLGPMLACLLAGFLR

C#CCNc1nc(Nc2ccc(S(N)(=O)=O)cc2)ncc1Br
IC50 (Carbonic anhydrase 2): 0.331 µM

COc1cc(O)c(/C=C\C(=O)O)cc1[C@@H](O)CC(C)C
IC50 (Carbonic anhydrase 15): 93.1 µM | IC50 (Carbonic anhydrase 13): 0.79 µM | IC50 (Carbonic anhydrase 12): 48.6 µM | IC50 (Carbonic anhydrase 9): 54.5 µM | IC50 (Carbonic anhydrase 7): 27.9 µM | IC50 (Carbonic anhydrase 3): > 0.01 µM | IC50 (Carbonic anhydrase 6): 35.7 µM | IC50 [1]: 17.7 µM | IC50 (Carbonic anhydrase 1): 0.078 µM | IC50 [2]: 9.6 µM | IC50 (Carbonic anhydrase 14): 0.78 µM

Cc1cn(-c2cc(NC(=O)c3ccc(C)c(Nc4nccc(-c5cccnc5)n4)c3)cc(C(F)(F)F)c2)cn1 [NILOTINIB]
Ki (Carbonic anhydrase 15): 0.079 µM | Ki (Carbonic anhydrase 13): 4.67 µM | Ki (Carbonic anhydrase 12): 0.302 µM | Ki (Carbonic anhydrase 9): 0.0419 µM | Ki (Carbonic anhydrase 3): 0.443 µM | Ki (Carbonic anhydrase 6): 0.461 µM | Ki [1]: 14.9 µM | Ki (Carbonic anhydrase 1): 0.0293 µM | Ki [2]: 5.49 µM | Ki (Carbonic anhydrase 4): 0.446 µM | Ki (Carbonic anhydrase 14): 0.223 µM
